Assay results: patent US7317003B2, “Small peptides having anti-angiogenic and endothelial cell inhibition activity” (National University of Singapore, priority 1998, dated 2008)
Where a SMILES comes first, the peptide text is derived from it.

Assays:
[1] = tested on: chick embryo chorioallantoic membrane (CAM); assay: chick embryo chorioallantoic membrane (CAM) in vivo angiogenesis assay; conditions: for inhibition of chick CAM angiogenesis (in words): peptide on cover slip, compared to PBS control
Protocol: Since peptides Angio-2, Angio-3 and Angio-4 all inhibited BAE cell proliferation, they were also tested in the chick embryo chorioallantoic membrane (CAM) in vivo angiogenesis assay (7). In this assay, the peptides are coated onto 2-3 mm glass squares cut from microscope cover slips. […] Peptide Angio-3 reduced microvessel density at the very low dose of 12 pg/cover slip (the lowest dose tested, comparing to a PBS control). As a positive control, recombinant angiostatin at the dose of 100 ug/cover slip was tested in the same experiment. The amount of inhibition (judging from the extent of reduction in microvessel density) from 100 ug recombinant angiostatin is equivalent to 1.2 ug of Angio-3 peptide.

[2] = tested on: bovine aorta endothelial cell (BAE); type: cell-based; conditions: 72 h; for inhibition of BAE cell proliferation (in words): bFGF 1 ng/ml
Protocol: The peptides were tested in an in vitro bovine aorta endothelial cell (BAE) proliferation assay for their ability to inhibit BAE cell proliferation. Cells were plated into 24-well culture plates at 1.25×10^4 cells/well in complete SFM-endothelial medium (Gibco, USA). After 24 h, the medium was removed and various amounts of peptides were added into the wells in 0.5 ml of SFM-endothelial medium without bFGF. After 30 minutes incubation, bFGF was added into each well at a final concentration of 1 ng/ml together with another 0.5 ml of SFM-endothelial medium. Seventy-two hours later, cells were trypsinized and counted using a hemocytometer. Commercial E. coli recombinant human angiostatin (1 μM) was used as a control in the experiments.
Peptides were tested in an in vitro bovine aorta endothelial cell (BAE) proliferation assay for their ability to inhibit BAE cell proliferation. Cells were plated into 24-well culture plates at the number of 1.25×10^4/well in complete SFM-endothelial media (Gibco, USA). After 24 hours, the medium was removed and various amounts of peptides were added into the wells in 0.5 ml of SFM-endothelial medium without bFGF. After 30 minutes incubation, bFGF was added into each well at a final concentration of 1 ng/ml together with another 0.5 ml of SFM-endothelial medium. Seventy-two hours later, cells were trypsinized and counted using a hemocytometer. […] The IC50 of the Endo-2, -3 and -4 peptides is estimated to be 0.4 uM, 0.3 uM and 2 uM respectively.

[3] = tested on: chick embryo chorioallantoic membrane (CAM); assay: chick embryo chorioallantoic membrane (CAM) in vivo angiogenesis assay; conditions: 10 day embryo, 12 ug/cover slip
[4] = tested on: Human hepatoma cell line HepG2; conditions: mouse, in vivo, 15 mg/kg, 12 h
Protocol: Human hepatoma cell line HepG2 was cultured and 1 million cells were injected subcutaneously into the right back of each 6 weeks old BALB/c nude mouse. Visible tumors appear from about 2 weeks after tumor cell injection. Mice with tumors were then randomly grouped and injected with the peptide at 300 μg/mouse every 12 h (16-19 g average weight). […] Tumor sizes were measured with a caliper every three days and volumes calculated using the formula (width)^2×length×0.52. Statistical analyses were done using student t-test using the SigmaStat software (SPSS, USA). Tumors are angiogenesis dependent. To test if peptide angio-3 can inhibit tumor growth in vivo, human hepatoma HepG2 cells were injected subcutaneously into nude mice to induce tumor formation. Tumor nodules appear in about 15-18 days after tumor cell injection. Peptide was then injected at a distant site from the tumor into tumor bearing mice at 15 mg/kg every 12 h for up to a month. […] Experiments were terminated when the control group tumors started to show necrosis.

BAE cells = assay: BAE cell cytotoxicity by trypan blue staining and cellular morphology; type: cell-based, bovine; conditions: 20 μM, trypan blue staining and microscopic cellular morphology
Protocol: The IC50 of the three peptides are about 2 mM, 20 nM and 200 uM respectively.

[5] = tested on: primary tumor growth and metastasis; conditions: mice; cited from earlier work
[6] = tested on: bovine aorta endothelial cell (BAE); conditions: reported in reference 5; cited from earlier work
[7] = 100 mg/kg/day; cited from earlier work

Row | IC50 [2] [µM] | Compound | inhibition of chick CAM angiogenesis (in words) [1] | inhibition of BAE cell proliferation (in words) [2] | also measured
1 | ~2000 | CC[C@H](C)[C@H](NC(=O)[C@H](Cc1ccc(O)cc1)NC(=O)CNC(=O)[C@H](Cc1c[nH]cn1)NC(=O)[C@H](C)NC(=O)[C@H](Cc1c[nH]cn1)NC(=O)[C@@H]1CCCN1C(=O)[C@@H](N)CO)C(=O)N1CCC[C@H]1C(=O)N[C@@H](CO)C(=O)O [Angio-2] (H-SPHAHGYIPS-OH; N-terminus and C-terminus assumed) | inhibited chick CAM angiogenesis | inhibited BAE cell proliferation in a dose-dependent manner | inhibition of chick CAM angiogenesis (FIG. 5) [3]: Inhibition of chick CAM angiogenesis
2 | ~0.02 | C[C@@H](O)[C@H](N)C(=O)N1CCC[C@H]1C(=O)N[C@@H](Cc1c[nH]cn1)C(=O)N[C@H](C(=O)N[C@@H](Cc1c[nH]cn1)C(=O)N[C@@H](CC(N)=O)C(=O)N[C@@H](CCCNC(=N)N)C(=O)N[C@H](C(=O)N1CCC[C@H]1C(=O)N[C@@H](CCC(=O)O)C(=O)O)[C@@H](C)O)[C@@H](C)O [Angio-3] (H-TPHTHNRTPE-OH) |  |  | inhibition of HepG2 tumor growth [4]: about 40%; cell cytotoxicity with BAE cells (BAE cells): No obvious cell cytotoxicity
3 | ~200 | C[C@@H](O)[C@H](N)C(=O)N1CCC[C@H]1C(=O)N[C@@H](Cc1c[nH]cn1)C(=O)N[C@@H](CCCNC(=N)N)C(=O)N[C@@H](Cc1c[nH]cn1)C(=O)N[C@@H](CCC(N)=O)C(=O)N[C@@H](CCCCN)C(=O)N[C@H](C(=O)N1CCC[C@H]1C(=O)N[C@@H](CCC(=O)O)C(=O)O)[C@@H](C)O [Angio-4] (H-TPHRHQKTPE-OH; N-terminus and C-terminus assumed) | inhibited chick CAM angiogenesis | inhibited BAE cell proliferation in a dose-dependent manner | inhibition of chick CAM angiogenesis (FIG. 3, 4) ([1]; 4 day embryo, 120 ug/cover slip): Inhibition of chick CAM angiogenesis
4 | ~0.4 | CC(C)C[C@H](NC(=O)[C@@H]1CCCN1C(=O)[C@@H](NC(=O)[C@H](CC(N)=O)NC(=O)[C@H](CC(C)C)NC(=O)[C@H](C)NC(=O)[C@@H](NC(=O)[C@H](CC(C)C)NC(=O)[C@H](Cc1c[nH]cn1)NC(=O)[C@H](CC(C)C)NC(=O)[C@@H](NC(=O)[C@@H]1CCCN1C(=O)[C@@H](N)CCC(N)=O)C(C)C)C(C)C)[C@@H](C)O)C(=O)O [Endo-2] (H-QPVLHLVALNTPL-OH; N-terminus and C-terminus assumed) |  | inhibited BAE cell proliferation in a dose-dependent manner | 
5 | ~0.3 | CC[C@H](C)[C@H](NC(=O)[C@@H]1CCCN1C(=O)[C@@H](N)C(C)C)C(=O)N[C@H](C(=O)N[C@@H](CC(N)=O)C(=O)N[C@@H](CC(C)C)C(=O)N[C@@H](CCCCN)C(=O)N[C@@H](CC(=O)O)C(=O)N[C@@H](CCC(=O)O)C(=O)N[C@H](C(=O)N[C@@H](CC(C)C)C(=O)N[C@@H](CO)C(=O)N1CCC[C@H]1C(=O)N[C@@H](CO)C(=O)O)C(C)C)C(C)C [Endo-3] (H-VPIVNLKDEVLSPS-OH; N-terminus and C-terminus assumed) |  | inhibited BAE cell proliferation in a dose-dependent manner | 
6 | ~2 | CC(C)[C@H](NC(=O)[C@H](CO)NC(=O)[C@H](CCCCN)NC(=O)[C@H](CCC(N)=O)NC(=O)[C@@H]1CCCN1C(=O)[C@H](Cc1c[nH]c2ccccc12)NC(=O)[C@H](C)NC(=O)[C@@H]1CCCN1C(=O)[C@@H](N)Cc1c[nH]cn1)C(=O)N[C@@H](Cc1c[nH]c2ccccc12)C(=O)N[C@@H](Cc1c[nH]cn1)C(=O)NCC(=O)N[C@@H](CO)C(=O)N[C@@H](CC(=O)O)C(=O)N1CCC[C@H]1C(=O)N[C@@H](CO)C(=O)O [Endo-4] (H-HPAWPQKSVWHGSDPS-OH; N-terminus and C-terminus assumed) |  | inhibited BAE cell proliferation in a dose-dependent manner | inhibition of chick CAM angiogenesis (FIG. 8) ([1]; 10 day embryo, 1.8 μg/coverslip): Inhibition of chick CAM angiogenesis
7 |  | Endo-1: endostatin-derived small peptide (SPHNSYIVLPI; Mammalian; Endo-1) |  | only a slight inhibition effect at high doses | 
8 |  | angiostatin |  |  | dose at which inhibition of metastasis is observed [5]: about 1 mg/kg/day; dose at which inhibition of primary tumor growth is observed [5]: about 10 mg/kg/day; reported IC50 range, endothelial cell proliferation [6]: nanomolar range; toxicity in mice [7]: without observable toxicity
9 |  | fVEGF: peptide designed from Zebrafish VEGF (YPDEIEHTYIPS; Mammalian; fVEGF) | dose-dependent inhibition of CAM angiogenesis |  | 
10 |  | hFLT2-5: further N-terminal truncation of hFLT2 (KKFPL; Mammalian; hFLT2-5) | non-functional peptide |  | 
11 |  | hFLT2-7: further N-terminal truncation of hFLT2 (TLKKFPL; Mammalian; hFLT2-7) | non-functional peptide |  | 
12 |  | hFLT2: small peptide designed from Ig domain 2 of the extracellular region of FLT-1 (SPNITVTLKKFPL; Mammalian; hFLT2) | very potent angiogenesis inhibition activity |  | 
13 |  | mVEGF: peptide designed from mammalian VEGF sequences (YPDEIEYIFKPS; Mammalian; mVEGF) | dose-dependent inhibition of CAM angiogenesis |  | inhibition of chick CAM angiogenesis (FIG. 9A-9B) ([1]; 13 day embryo, various doses, 0 and 40 hours incubation): Inhibition of chick CAM angiogenesis
